Data taken from patent publication US8350079B2, “Treprostinil formulation” (United Therapeutics Corporation, priority 2008, dated 2013).

How the values were obtained:
[1] = Stability tests of treprostinil forms (dimer formation, room temperature stability); assay type: physicochemical
Experimental: The anhydrous form of treprostinil (TREPROSTINIL) has been previously described, e.g., in J. Org. Chem. 2004, 69, 1890-1902. […] A larger amount of dimers can form at higher temperatures. However, dimer formation is negligible at 5° C. Therefore, anhydrous treprostinil must be refrigerated for storage and transport. In the past, treprostinil had to be refrigerated and shipped with ice packs to maintain low (2° C.-8° C.) temperatures.
The instability of anhydrous treprostinil also imposes challenges to its preparation. To obtain anhydrous treprostinil, wet compound from recrystallization was heated in a vacuum. […] Therefore, heating temperature must be carefully controlled to avoid high heat when drying treprostinil in order to remove all water, otherwise these two dimer impurities will be produced.
Data has been generated to characterize a monohydrate form of treprostinil. […] Treprostinil monohydrate can be stored and shipped with no special handling.

[2] = Stability of anhydrous treprostinil at 25° C. (6-month stability report, lot 01A07002); assay type: physicochemical
Experimental: II. Stability of Anhydrous Form Versus Monohydrate Form of TREPROSTINIL at 25° C.
1. Stability Report (6-month) for anhydrous lot #01A07002
A 3.34-kg sample of treprostinil diethanolamine salt was dissolved in 40 L of sterile water, 60 L of ethyl acetate and 3.2 L of 3 M HCl were added and the mixture stirred. The layers were separated and the aqueous layer was extracted thrice with 20-L portions of ethyl acetate. The four organic layers were combined, the organic solution washed twice with 20-L portions of sterile water, once with 20 L of brine and dried over 2.97 kg of anhydrous sodium sulfate. The mixture was filtered and the filtrate was concentrated to yield treprostinil as a gummy solid. This solid was transferred to glass drying trays and let air-dry for 93 hours. This solid was then dissolved in 23.4 kg of ethanol, warmed to 48° C. and treated with 23.4 kg of warm (40-50° C.) sterile water. The solution was stirred and then stirring was stopped to allow the treprostinil to slowly crystallize. The resulting white solid was collected by filtration in an Aurora filter, washed with 45 L of a cold (6° C.) 20% ethanol in sterile water solution, the filter moved to a Hepa-filtered Finishing Room and the solid dried under house vacuum for 22.3 hours. The solid was transferred to drying trays and further dried in a vacuum oven at 55 deg. C and 0.26 Torr for 22.7 hours to give 2.63 kg (96.3%) of anhydrous treprostinil (Lot #01A07002) as a white solid.

Dimer formation ([1]; 5° C.): negligible
Stability (stability tests) ([1]; 25° C., dimers formed upon standing): not stable
Dimer formation on heating the solid ([1]; solid heated above 50° C. in vacuum drying): two dimers of treprostinil formed
HPLC Assay 750W93 ([2]; 3 months): 1.2
HPLC Assay 751W93 ([2]; 3 months): 0.9
HPLC Assay Treprostinil ([2]; 3 months): 98.1%
Physical examination ([2]; 3 months): White powder
Water (Karl Fischer) ([2]; 3 months): 0.7%
HPLC Assay 750W93 ([2]; 6 months): 1.5
HPLC Assay 751W93 ([2]; 6 months): 1.1
HPLC Assay Treprostinil ([2]; 6 months): 95.4%
Physical examination ([2]; 6 months): White powder
Water (Karl Fischer) ([2]; 6 months): 0.8%
HPLC Assay 750W93 ([2]; Initial): 0.2
HPLC Assay 751W93 ([2]; Initial): 0.3
HPLC Assay Treprostinil ([2]; Initial): 99.6%
Physical examination ([2]; Initial): White powder
Water (Karl Fischer) ([2]; Initial): 0.4%
SMILES: CCCCC[C@H](O)CC[C@@H]1[C@H]2Cc3cccc(OCC(=O)O)c3C[C@H]2C[C@H]1O [Lot No. 01 A07002 (Anhydrous), 2-((1R,2R,3aS,9aS)-2-hydroxy-1-((S)-3-hydroxyoctyl)-2,3,3a,4,9,9a-hexahydro-1H-cyclopenta[b]naphthalen-5-yloxy)acetic acid]
